Experimental data reported in patent publication US6936610B2, “Heterocyclic derivatives” (AstraZeneca UK Limited, priority 1996, dated 2005).
Counter-ions that a name gives are not always drawn.

`O=C(c1ccc(-c2ccncc2)cc1)N1CCN(S(=O)(=O)c2ccc3cc(Cl)ccc3c2)CC1` (as salt: trifluoroacetate) [Example 7, 1-(6-chloronaphth-2-ylsulphonyl)4-[4-(4-pyridyl)benzoyl]piperazine] gave a melting point of 175 to 176 °C.
`Cc1cc(-c2ccc(C(=O)N3CCN(S(=O)(=O)c4ccc5cc(Br)ccc5c4)CC3)cc2)ccn1` [Example 8, 1-(6-bromonaphth-2-ylsulphonyl)-4-[4-(2-methyl-4-pyridyl)benzoyl]piperazine] showed a melting point of 204 to 205 °C.
Compound `O=C(c1ccc(-c2ccnnc2)cc1)N1CCN(S(=O)(=O)c2ccc3cc(Br)ccc3c2)CC1` [Example 9, 1-(6-bromonaphth-2-ylsulphonyl)4-[4-(4-pyridazinyl)benzoyl]piperazine] has a melting point of 128 to 130 °C.
